# From US20160303231A1, “TREATING CANCER WITH A COMBINATION OF A PD-1 ANTAGONIST AND A VEGFR INHIBITOR” (GLAXOSMITHKLINE LLC, priority 2013, published 2016)
# Counter-ions that a name gives are not always drawn.
# System: RENCA cells
# Test: Anti-tumor response of tumor-bearing mice (RENCA tumor model)
# Type: in vivo, BALB/c mice
# Details: for Tumor Size (D17): Mean ± SEM, day 17
# Experimental: A cohort of 8 weeks old female BALB/c mice were implanted with 1×10^6 RENCA cells. […] The Vehicle control was 0.5% hydroxypropylemethylcellulose, 0.1% Tween-80 in distilled water, pH adjusted to 1.3-1.5 with 0.1N hydrochloric acid. The Isotype control was mouse IgG1 specific for an adenoviral hexon protein (clone TC31.27F11).
# A one-way ANOVA test was performed to compare tumor volume at the end of study among groups.
# [1] = G4: Isotype 5 mpk + Pazopanib 100 mpk qd
# [2] = G6: Isotype 1 mpk + Pazopanib 100 mpk qd
# [3] = G8: Isotype 5 mpk + Pazopanib 100 mpk bid
compound,measurement,setting,value
"Cc1ccc(Nc2nccc(N(C)c3ccc4c(C)n(C)nc4c3)n2)cc1S(N)(=O)=O [Pazopanib, 5-[[4-[(2,3-dimethyl-2H-indazol-6-yl)methylamino]-2-pyrimidinyl]amino]-2-methylbenzenesulfonamide monohydrochloride]",T/C,[1],61%
same,TGI (tumor growth inhibition),[1],39%
same,T/C,[2],70%
same,TGI (tumor growth inhibition),[2],30%
same,Tumor Size (D17),[2],"1,751 ± 214 mm^3"
same,T/C,[3],48%
same,TGI (tumor growth inhibition),[3],52%
same,Tumor Size (D17),[3],"1,240 ± 97 mm^3"
